Laboratory results reported in patent US7608611B2, “Hsp90 inhibitors, methods of making and uses therefor” (The Regents of the University of Colorado, priority 2005, dated 2009).
Like-named read-outs stand apart in the source and are kept apart here. Values belong to the molecule of their own block, whether it stands above or below them.

How the values were obtained:
NQO1 [1] = biological target: T1, NQO1 (Homo sapiens, UniProt P15559); experiment: Reduction of 17-AAG by rhNQO1 and NADH, HPLC analysis; format: in vitro ADME
Method: HPLC conditions: Buffer A, 50 mM ammonium acetate, pH 4 containing 10 μM D(−) penicillamine; buffer B, acetonitrile (100%). Both buffers were continuously bubbled with N2. Gradient, 20% B to 85% B over 20 min, then 85% for 4 min (flow rate of 1 ml/min). The sample injection volume was 50 μl. Liquid Chromatography-Mass Spectrometry was performed using positive ion electrospray ionization (ESI) and the mass spectra were obtained with a PE Sciex API-3000 triple quadrupole mass spectrometer (Foster City, Calif.) with a turbo ionspray source interfaced to a PE Sciex 200 HPLC system. Samples were chromatographed on a Luna C18 reverse-phase column (5 μm, 50×2 mm (Phenomenex) using a gradient elution consisting of a 2 min initial hold at 20% B followed by an increase to 80% B over 20 min at a flow rate of 0.2 ml/min and a sample injection volume of 20 μl. Buffer A, 10 mM ammonium acetate containing 0.1% (v/v) acetic acid, pH 4.4: buffer B, 10 mM ammonium acetate in acetonitrile containing 0.1% (v/v) acetic acid. The mass spectrometer settings were: turbo ionspray temperature of 250° C., spray needle voltage at 4500 V, declustering potential (DP) at 35 V and focus plate (FP) at 125 V. Mass spectra were continuously recorded from 150 to 1000 amu every 3 s during the chromatographic analysis.
Inhibition of rhNQO1 by ES936 was >98%. […]

yeast Hsp90 = yeast Hsp90 (Saccharomyces cerevisiae, UniProt P02829); format: biochemical; conditions: 17-AAG, 3 hr; for inhibition of yeast Hsp90 ATPase activity in the presence of NQO1 (17-AAGH2 formed): NADH and rhNQO1
Hsp90 = experiment: Immunoblot of Hsp90 inhibition markers (Hsp70, Raf-1, pMEK, pERK) in MDA468/NQ16 versus MDA468 cells; format: cell-based, human; conditions: MDA468/NQ16 compared to MDA468 cells
Method: Results were confirmed in duplicate experiments. […] Results were confirmed in duplicate experiments.
To measure Hsp90 inhibition in these cells we analyzed Hsp70 induction and Raf-1 degradation as markers of Hsp90 inhibition (FIG. 5). […] Following drug treatment cells were washed in PBS then lysed by the addition of RIPA buffer (50 mM Tris-HCl, pH 7.4, 0.5% (v/v) NP40) containing 1 mini-protease tablet (protease inhibitor cocktail, Roche Indianapolis Ind.) and phosphatase inhibitors (30 mM NaF, 40 mM β-glycerol phosphate, 20 mM sodium pyrophosphate, 1 mM orthovanadate, 1 mM EGTA). Lysates were probe sonicated (2s) on ice then centrifuged to remove cellular debris. Protein concentrations were determined on supernatant. […] Membranes were blocked in 10 mM Tris-HCl, pH 8.0, 150 mM NaCl, 0.2% Tween-20 and 5% non-fat milk for a minimum of 1 hr at room temperature. Anti-Hsp70, anti-Raf-1, anti-MEK and anti-ERK antibodies were added for 1 hr at room temperature. Anti-phospho MEK and ERK antibodies were added overnight at 4° C. All primary antibodies were diluted 1:1,000 except actin (1:5,000). Horseradish peroxidase-labeled secondary antibodies (Jackson ImmunoResearch Labs, West Grove Pa.) were diluted 1:5000 and added for 30 min. Proteins were visualized using enhanced chemilumenscence detection.

MDA468 cells [2] = experiment: Metabolism of 17-AAG in intact MDA468 cells, HPLC; format: cell-based, human; conditions: 5 μM 17-AAG, 4 hr
MDA468 cell sonicates = experiment: Reduction of 17-AAG by MDA468 cell sonicates, HPLC; format: in vitro ADME, human
MDA468/NQ16 cells [3] = conditions: MTT
MDA468 cells [4] = conditions: read-out: IC50 growth inhibition; parental MDA468 cells, 4 hr exposure then 72 hr drug-free, MTT
MDA468/NQ16 cells [5] = tested on: MDA468/NQ16 cells
[6] = clinical trials, background statement; cited from earlier work
[7] = tested on: MDA468/NQ16 cell sonicates; conditions: NADH or NADPH
[8] = Stability (autoxidation) of 17-AAGH2 in solution by HPLC; format: physicochemical
Description: Results are mean, standard deviation, n=3.
During analysis HPLC buffers were continuously gassed with N2 and a copper chelator was included. […] In these studies the autoxidation of 17-AAGH2 was followed over time in an aerobic reaction.

NQO1 [9] = biological target: T1, NQO1; experiment: Inhibition of rhNQO1 by ES936; format: biochemical
Description: (§1) Inhibition of rhNQO1 by ES936 was >98%.

NQO1 [10] = biological target: T1, NQO1; experiment: Inhibition of NQO1 activity by ES936 in MDA468/NQ16 cells; format: cell-based; set-up: expressed in transfected cells; host or cells: MDA468/NQ16 (human breast cancer MDA468 stably transfected with human NQO1)
Description: as §1

[11] = MDA468/NQ16 cells, 5 μM 17-AAG, 4 hr

T1 sequence (P15559 whole entry): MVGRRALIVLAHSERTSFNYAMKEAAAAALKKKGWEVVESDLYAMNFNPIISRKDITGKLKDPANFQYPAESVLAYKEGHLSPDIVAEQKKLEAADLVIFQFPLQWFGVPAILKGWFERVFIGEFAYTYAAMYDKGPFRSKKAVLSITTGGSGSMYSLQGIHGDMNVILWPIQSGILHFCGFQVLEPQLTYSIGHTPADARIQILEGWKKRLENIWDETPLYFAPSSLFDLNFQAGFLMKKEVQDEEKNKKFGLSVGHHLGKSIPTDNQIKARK
Sequence of yeast Hsp90 (P02829 whole entry): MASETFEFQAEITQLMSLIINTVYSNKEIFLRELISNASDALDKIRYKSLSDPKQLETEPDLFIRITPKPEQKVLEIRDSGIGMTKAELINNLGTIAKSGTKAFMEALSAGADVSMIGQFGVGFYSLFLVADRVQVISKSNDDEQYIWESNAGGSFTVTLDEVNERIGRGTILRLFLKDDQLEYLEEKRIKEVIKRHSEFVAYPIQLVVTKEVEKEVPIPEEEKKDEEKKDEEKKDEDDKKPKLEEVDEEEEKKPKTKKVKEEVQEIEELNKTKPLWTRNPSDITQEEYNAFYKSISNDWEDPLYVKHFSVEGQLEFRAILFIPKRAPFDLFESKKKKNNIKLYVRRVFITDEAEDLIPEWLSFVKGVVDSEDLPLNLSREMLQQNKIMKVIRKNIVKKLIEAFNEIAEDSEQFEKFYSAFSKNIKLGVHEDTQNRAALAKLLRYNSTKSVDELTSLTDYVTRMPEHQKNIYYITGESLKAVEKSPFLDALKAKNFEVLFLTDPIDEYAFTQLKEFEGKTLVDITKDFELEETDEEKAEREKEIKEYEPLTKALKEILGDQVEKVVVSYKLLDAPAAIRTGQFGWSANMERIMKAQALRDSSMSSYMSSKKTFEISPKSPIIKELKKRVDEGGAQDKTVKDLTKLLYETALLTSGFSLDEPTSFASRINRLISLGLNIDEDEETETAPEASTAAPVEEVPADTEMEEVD

SMILES: C=CCNC1=C2C[C@@H](C)C[C@H](OC)[C@H](O)[C@@H](C)/C=C(\C)[C@H](OC(N)=O)[C@@H](OC)/C=C\C=C(/C)C(=O)NC(=CC1=O)C2=O [17-AAG, 17-demethoxy-17-(2-propenylamino)-geldanamycin]
17-AAG detected in the form of the hydroquinone after reduction by NQO1 (NQO1 [1]): 90%
inhibition of yeast Hsp90 ATPase activity in the presence of NQO1 (17-AAGH2 formed) (yeast Hsp90): substantial decrease in ATPase activity
inhibition of yeast Hsp90 ATPase activity in the absence of NQO1 (yeast Hsp90; NADH): No inhibition
Hsp70 induction (Hsp90; 17-AAG 0.5-1 μM, 8 hr): greater Hsp70 induction
Raf-1 degradation (Hsp90; 17-AAG 0.5-1 μM, 8 hr): increased Raf-1 degradation
MEK and ERK phosphorylation (Hsp90; serum starved 24 hr, 17-AAG 8 hr): decreased levels of both MEK and ERK phosphorylation
Cell viability (trypan blue exclusion assay) (MDA468 cells [2]): > 90%
formation of 17-AAGH2 in intact cells (MDA468 cells [2]): No 17-AAGH2 could be detected
generation of 17-AAGH2 by cell sonicates (MDA468 cell sonicates): No 17-AAGH2 could be detected
IC50 (MDA468/NQ16 cells [3]; read-out: IC50 growth inhibition after pretreatment with ES936, pretreatment with 100 nM ES936 for 30 min, 4 hr exposure then 72 hr): 7.67 ± 1.36 µM
IC50 (MDA468/NQ16 cells [3]; read-out: IC50 growth inhibition, MDA468/NQ16 cells, 4 hr exposure then 72 hr drug-free): 0.86 ± 0.16 µM
IC50 (MDA468 cells [4]): 10.1 ± 1.07 µM
Cell viability (trypan blue exclusion assay) (MDA468/NQ16 cells [5]; [11]): > 90%
formation of 17-AAGH2 in intact cells (MDA468/NQ16 cells [5]; [11]): 17-AAGH2 could be generated
accumulation of total drug (quinone plus hydroquinone) in cells (MDA468/NQ16 cells [5]; MDA468/NQ16 compared to ES936-treated or parental MDA468 cells): accumulated more total drug
hepatotoxicity / liver toxicity [6]: do not induce liver toxicity
generation of 17-AAGH2 by cell sonicates [7]: readily generated 17-AAGH2

SMILES: C=CCNc1c(O)cc2c(O)c1CC(C)CC(OC)C(O)C(C)C=C(C)C(OC(N)=O)C(OC)C=CC=C(C)C(=O)N2 (stereo not shown) [17-AAGH2, 17-Demethoxy-18,21-dihydroxy-17-(2-propenylamino)-geldanamycin]
autoxidation of the hydroquinone back to the quinone over time ([8]; aerobic, 50 mM potassium phosphate buffer pH 7.4, 27° C.): slow rate of autoxidation back to 17-AAG over a period of hours
effect of copper on 17-AAGH2 oxidation ([8]; inclusion of copper (CuSO4)): could facilitate 17-AAGH2 oxidation
inhibition of yeast Hsp90 ATPase activity in the presence of NQO1 (17-AAGH2 formed) (yeast Hsp90): the active Hsp90 inhibitor

SMILES: CO[C@H]1/C=C\C=C(/C)C(=O)NC2=CC(=O)C(NCCN(C)C)=C(C[C@@H](C)C[C@H](OC)[C@H](O)[C@@H](C)/C=C(\C)[C@@H]1OC(N)=O)C2=O [17-DMAG, 17-demethoxy-17-[[2-(dimethylamino)ethyl]amino]-geldanamycin]
hepatotoxicity / liver toxicity [6]: do not induce liver toxicity

Inhibition of rhNQO1 (NQO1 [9]): > 98%
inhibition at 0.1 µM (NQO1 [10]; single dose 100 nM ES936, after 4 hr, MDA468/NQ16 cells): > 96%
SMILES: COC1=CC(=O)c2c(c(COc3ccc([N+](=O)[O-])cc3)c(C)n2C)C1=O [ES936, 5-methoxy-1,2-dimethyl-3-[(4-nitrophenoxy)methyl]indole-4,7-dione]
toxicity of ES936 to cells (NQO1 [10]; single dose of 100 nM): nontoxic

SMILES: COC1=C2C[C@@H](C)C[C@H](OC)[C@H](O)[C@@H](C)/C=C(\C)[C@H](OC(N)=O)[C@@H](OC)/C=C\C=C(/C)C(=O)NC(=CC1=O)C2=O [GDM, geldanamycin]
hepatotoxicity / liver toxicity [6]: unacceptable hepatotoxicity
